Experimental data published in patent US6653478B2, “Substituted benzimidazol-2-ones as vasopressin receptor antagonists and neuropeptide Y modulators” (Ortho-McNeil Pharmaceutical, Inc., priority 2000, dated 2003).

Assays:
Set-up in all cases: expressed in transfected cells; host or cells: HEK-293 (membranes)
human V1a receptor = human V1a receptor (Homo sapiens, UniProt P37288); experiment: V1a binding assay (3H-AVP displacement, HEK-293 membranes); conditions: for inhibition at 1 µM: 1.0 μM compound, read-out: V1a@1.0, % Inh
Sequence of human V1a receptor (P37288 whole entry): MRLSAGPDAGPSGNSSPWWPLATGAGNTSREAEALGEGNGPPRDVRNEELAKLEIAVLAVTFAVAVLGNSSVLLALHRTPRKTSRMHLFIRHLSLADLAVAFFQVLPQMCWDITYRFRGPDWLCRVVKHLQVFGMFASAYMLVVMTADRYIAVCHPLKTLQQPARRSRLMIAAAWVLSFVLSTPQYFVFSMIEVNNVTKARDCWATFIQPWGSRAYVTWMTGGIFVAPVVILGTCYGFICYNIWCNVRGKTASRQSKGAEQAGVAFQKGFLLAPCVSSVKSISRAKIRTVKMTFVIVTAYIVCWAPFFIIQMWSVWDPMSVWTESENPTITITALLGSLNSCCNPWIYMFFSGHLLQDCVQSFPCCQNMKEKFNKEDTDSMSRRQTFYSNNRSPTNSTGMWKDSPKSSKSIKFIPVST
Procedure: (§1) V1a, V1b or V2 Binding Assay
(§2) Receptor binding studies were performed using recombinant human V1a, V1b or V2 receptors. Cellular membranes were harvested from HEK-293 cells transfected to express either the V1a, V1b or V2 receptors. Compounds were evaluated for their ability to displace ^3H-arginine vasopressin (^3H-AVP; specific activity 40-87 Ci/mmol; NEN Life Sciences, Boston, Mass.). Compounds were solubilized in dimethylsulfoxide (DMSO) and diluted to working concentration of 10% DMSO with assay buffer (50 mM Tris, 5 mM MgCl2, 0.1% BSA, pH 7.5). Assay buffer was supplemented with several protease inhibitors (1 mM Pefabloc, 5 μg/ml aprotinin/leupeptin/pepstatin A, 50 μg/ml bacitracin; Sigma Chemical, St. Louis, Mo.). Non-specific binding was determined using 1.25 μM arginine vasopressin (AVP; Peninsula Labs, Belmont, Calif.). Assay reagents and test compounds were added to 96-well round bottom polypropylene plates (145 μl buffer, 5 μl compound in 10% DMSO, 25 μl buffer containing 10,000 cpm tracer, 25 μl cell membrane). After incubation for 1 hour at room temperature, the well contents were aspirated across a Unifilter GF/C plate (Packard Instrument, Downers Grove, Ill.) which had been presoaked in 0.3% polyethyleneimine to prevent peptide sticking. The wells were washed repeatedly with cold saline containing 0.05% Tween 20. The plate was then dried and 25 μl Microscint-20 cocktail (Packard Instruments) added to each well. The plates were sealed and counted on a TopCount scintillation counter (Packard Instruments) using quench correction.

human V2 receptor = human V2 receptor (Homo sapiens, UniProt P30518); experiment: V2 binding assay (3H-AVP displacement, HEK-293 membranes); conditions: 1.0 μM compound; for inhibition at 1 µM: read-out: V2@1.0, % Inh
Sequence of human V2 receptor (P30518 whole entry): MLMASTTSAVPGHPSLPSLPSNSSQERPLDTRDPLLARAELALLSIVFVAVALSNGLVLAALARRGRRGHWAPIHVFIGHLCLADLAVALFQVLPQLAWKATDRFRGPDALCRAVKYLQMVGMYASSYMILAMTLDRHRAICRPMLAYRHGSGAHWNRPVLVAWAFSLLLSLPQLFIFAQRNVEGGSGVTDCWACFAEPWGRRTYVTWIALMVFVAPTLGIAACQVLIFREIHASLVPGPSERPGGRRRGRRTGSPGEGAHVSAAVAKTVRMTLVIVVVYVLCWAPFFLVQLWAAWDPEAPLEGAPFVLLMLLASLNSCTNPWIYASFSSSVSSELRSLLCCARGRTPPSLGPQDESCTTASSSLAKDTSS
Procedure: as §1, §2

human V1b receptor = target: T1, human V1b receptor (Homo sapiens, UniProt P47901); experiment: V1b binding assay (3H-AVP displacement, HEK-293 membranes); conditions: for inhibition at 1 µM: 1.0 μM compound, read-out: V1b@1.0, % Inh
T1 sequence (P47901 1-424): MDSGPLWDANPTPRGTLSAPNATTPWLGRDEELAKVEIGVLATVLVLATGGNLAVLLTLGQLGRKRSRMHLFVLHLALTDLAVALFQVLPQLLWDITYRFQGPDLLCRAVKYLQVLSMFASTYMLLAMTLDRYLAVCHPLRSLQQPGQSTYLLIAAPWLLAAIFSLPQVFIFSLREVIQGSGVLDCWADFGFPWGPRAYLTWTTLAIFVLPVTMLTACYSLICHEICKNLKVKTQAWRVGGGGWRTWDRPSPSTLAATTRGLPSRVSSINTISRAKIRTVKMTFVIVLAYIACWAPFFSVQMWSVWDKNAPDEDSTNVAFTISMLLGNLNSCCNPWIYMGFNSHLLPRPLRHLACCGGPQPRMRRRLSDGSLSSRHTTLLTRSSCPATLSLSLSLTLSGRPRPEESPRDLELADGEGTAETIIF
Procedure: as §1, §2

Structure (SMILES)	IC50 (human V1a receptor) [nM]	inhibition at 1 µM (human V2 receptor) [%]	inhibition at 1 µM (human V1b receptor) [%]	inhibition at 1 µM (human V1a receptor) [%]	IC50 (human V1b receptor) [nM]	V2@1.0, % Inh (human V2 receptor; 1 µM) [%]	inhibition at 0.5 µM (human V1a receptor; 0.5 μM compound, read-out: V1a % Inh @0.5) [%]
COc1cccc(CNC(=S)N2CCC(n3c(=O)n(CCCN4CCCC4)c4ccccc43)CC2)c1OC [Compound 123, 1-[(N1-Piperidinocarbothioyl-(2,3-dimethoxybenzyl)amino)-4-yl]-3-(3-pyrrolidinylpropyl)-1,3-dihydrobenzimidazol-2-one]	430	2	31				
O=c1n(CCCN2CCCCC2)c2ccccc2n1C1CCN(C(=S)Nc2ccc3c(c2)OCO3)CC1 [Compound 156]	450	3	22				
O=c1n(CCCN2CCCCC2)c2ccccc2n1C1CCN(C(=S)NCc2ccc(Cl)c(Cl)c2)CC1 [Compound 174]	420	0	34				
CC(C)(C)NC(=S)N1CCC(n2c(=O)n(CCCN3CCCCC3)c3ccccc32)CC1 [Compound 130, 1-[(N1-piperidinocarbothioyl-butylamino)-4-yl]-3-(3-N-piperidinylpropyl)-1,3-dihydrobenzimidazol-2-one]		2	26	19			
O=c1n(Cc2ccc(-c3csnn3)cc2)c2ccccc2n1C1CCN(C(=S)NC(c2ccccc2)c2ccccc2)CC1 [Compound 167]		8	1	12			
CSC(=O)NC(=N)N1CCC(n2c(=O)n(CCCN3CCCCC3)c3ccccc32)CC1 [Compound 166]		19	16	5			
O=c1n(CCCN2CCCCC2)c2ccccc2n1C1CCN(C(=S)Nc2ccc3c(c2)CCC3)CC1 [Compound 155]		5	10	28			
O=c1n(CCCN2CCCCC2)c2ccccc2n1C1CCN(C(=S)N[C@]23C[C@H]4C[C@H](C[C@H](C4)C2)C3)CC1 [Compound 129, 1-[(N1-piperidinocarbothioyl-1-adamantylamino)-4-yl]-3-(3-N-piperidinylpropyl)-1,3-dihydrobenzimidazol-2-one]	73	3	53				
O=c1n(CCCN2CCCCC2)c2ccccc2n1C1CCN(C(=S)NCc2cccs2)CC1 [Compound 160]	230	0	27				
O=c1n(CCCN2CCCCC2)c2ccccc2n1C1CCN(C(=S)NCc2cccnc2)CC1 [Compound 168]		2	25	62			
CN(C)c1ccc(CNC(=S)N2CCC(n3c(=O)n(CCCN4CCCCC4)c4ccccc43)CC2)cc1 [Compound 165]		3	20	40			

Other lines, results leading:

IC50 (human V1a receptor) [nM]	inhibition at 1 µM (human V2 receptor) [%]	inhibition at 1 µM (human V1b receptor) [%]	inhibition at 1 µM (human V1a receptor) [%]	IC50 (human V1b receptor) [nM]	V2@1.0, % Inh (human V2 receptor; 1 µM) [%]	inhibition at 0.5 µM (human V1a receptor; 0.5 μM compound, read-out: V1a % Inh @0.5) [%]	Structure (SMILES)
	0	21	58				CC(C)c1ccccc1NC(=O)N1CCC(n2c(=O)n(CCCN3CCCCC3)c3ccccc32)CC1 [Compound 138]
80	6			680			O=c1n(CCCN2CCC(N3CCCCC3)CC2)c2ccccc2n1C1CCN(C(=S)NC(c2ccccc2)c2ccccc2)CC1 [Compound 170]
22		45			0		O=c1n(CCCN2CCCCC2)c2ccccc2n1C1CCN(C(=S)NCc2ccccc2-c2ccccc2)CC1 [Compound 127]
	0	33	85			15	CC(CN1CCCCC1)Cn1c(=O)n(C2CCN(C(=S)NC(c3ccccc3)c3ccccc3)CC2)c2ccccc21 (centres unmarked) [Compound 146]
230	2	38					O=C(NC1c2ccccc2-c2ccccc21)N1CCC(n2c(=O)n(CCCN3CCCCC3)c3ccccc32)CC1 [Compound 152]
42	0	44					CC(CN1CCCC1)Cn1c(=O)n(C2CCN(C(=O)NC(c3ccccc3)c3ccccc3)CC2)c2ccccc21 (centres unmarked) [Compound 149]
72	6			700			Cc1ccc2c(c1)n(CCCN1CCCCC1)c(=O)n2C1CCN(C(=S)NC(c2ccccc2)c2ccccc2)CC1 [Compound 172]
48	0	62					O=c1n(CCCN2CCCCC2)c2ccccc2n1C1CCN(C(=S)NC2c3ccccc3-c3ccccc32)CC1 [Compound 131, 1-[(N1-piperidinocarbothioylfluorenylamino)-4-yl]-3-(3-N-piperidinylpropyl)-1,3-dihydrobenzimidazol-2-one]
330	3	39					O=c1n(CCCN2CCCCC2)c2cc(C(F)(F)F)ccc2n1C1CCN(C(=S)NC(c2ccccc2)c2ccccc2)CC1 [Compound 121]
69	4	42					O=c1n(CCCN2CCCCC2)c2ccccc2n1C1CCN(C(=S)NCCCc2ccccc2)CC1 [Compound 133, 1-[(N1-piperidinocarbothioylphenpropylamino)-4-yl]-3-(3-N-piperidinylpropyl)-1,3-dihydrobenzimidazol-2-one]
91	0	41					CC(NC(=S)N1CCC(n2c(=O)n(CCCN3CCCCC3)c3ccccc32)CC1)c1ccc(F)cc1 (centres unmarked) [Compound 137]
117	4	26					O=C(Nc1ccccc1-c1ccccc1)N1CCC(n2c(=O)n(CCCN3CCCCC3)c3ccccc32)CC1 [Compound 162]
450	0	37					O=c1n(CCCC2CCCCC2)c2ccccc2n1C1CCN(C(=S)NC(c2ccccc2)c2ccccc2)CC1 [Compound 134, 1-[(N1-Piperidinocarbothioyldiphenylmethylamino)-4-yl]-3-(3-cyclohexylpropyl)-1,3-dihydro-benzimidazol-2-one]
52	0	70		250			CCCC1CCN(CCCn2c(=O)n(C3CCN(C(=S)NC(c4ccccc4)c4ccccc4)CC3)c3ccccc32)CC1 [Compound 122, 1-[(N1-piperidinocarbothioylbiphenylmethylamino)-4-yl]-3-(4-propylpiperidin-1-yl-propyl)-1,3-dihydrobenzimidazol-2-one]
	0	28	59				O=c1n(CCCN2CCC2)c2ccccc2n1C1CCN(C(=S)NC(c2ccccc2)c2ccccc2)CC1 [Compound 140]
	0	16	38				O=C(Cc1ccc(N2CCCC2)cc1)n1c(=O)n(C2CCN(C(=S)NC(c3ccccc3)c3ccccc3)CC2)c2ccccc21 [Compound 150]
